The source of these data is PMC12703428, “Development of Granzyme A Turn‐ON Fluorescent Activity‐Based Probes” (Chembiochem, 2025).

Experiment [1] concerns the target T1, proteinase 3 (PR3) (Homo sapiens, UniProt P24158).
T1 sequence (P24158 28-256): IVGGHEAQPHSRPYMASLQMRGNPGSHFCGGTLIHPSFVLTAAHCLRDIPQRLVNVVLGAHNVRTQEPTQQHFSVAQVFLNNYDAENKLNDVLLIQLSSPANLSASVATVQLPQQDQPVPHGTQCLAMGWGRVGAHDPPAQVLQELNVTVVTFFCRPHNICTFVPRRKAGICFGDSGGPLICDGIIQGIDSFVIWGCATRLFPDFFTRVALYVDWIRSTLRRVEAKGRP
As to the kind of experiment: Cross-reactivity labeling, proteinase 3. Type of experiment: biochemical. The settings on record: protease 100 nM, probe 100 nM, 2 h, 37 °C, in-gel fluorescence. How it is done: Protease (100 nM) HNE PR3 GzmK GzmA
Protease (100 nM) GzmA GzmK
Supplementary Figure 2. Cross-reactivity of probes. (A) Labeling of GzmA, GzmK, PR3, and HNE
(100 nM, 2 h, 37 °C) by 100 nM of 5 and 6. (B) Labeling of GzmA and GzmK (100 nM, 2 h, 37 °C) by
100 nM of 3 – 6. (C) Concentration-dependent labeling of GzmA and GzmK (100 nM, 2 h, 37 °C) by 5 and
6. Protein samples were analyzed by SDS-PAGE and in-gel fluorescence scanning for Cy5 signal.
Protein loading was confirmed by SYPRO Ruby staining. […]

Experiment [2] has as its target T2, GzmA in lysate of NK‐92 cells (Homo sapiens, UniProt P12544).
T2 construct: host or cells: NK-92
T2 sequence (P12544 29-262): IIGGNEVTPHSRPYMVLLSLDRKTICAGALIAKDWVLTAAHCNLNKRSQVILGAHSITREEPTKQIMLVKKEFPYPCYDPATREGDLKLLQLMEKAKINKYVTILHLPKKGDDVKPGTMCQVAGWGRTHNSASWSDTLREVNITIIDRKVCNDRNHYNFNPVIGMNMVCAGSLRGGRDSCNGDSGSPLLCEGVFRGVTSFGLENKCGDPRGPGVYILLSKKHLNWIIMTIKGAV
In words: Labeling of GzmA in NK-92 cell lysate. The settings on record: 1 mg/mL lysate, various probe concentrations, 1 h, 37 °C, in-gel fluorescence. Type of experiment: biochemical. As for the experimental part: Figure 4 Characterization of qABPs in native proteomes. A) Labeling of GzmA by 5 and 6 in lysates of various cell lines (1 h, 37 °C). B) Stability of 5 and 6 in buffer and cell media (11 h, 37 °C). The hydrolysis of probes was measured by monitoring the production of Cy5 fluorescence signal over time. […] C) Labeling of GzmA by probes 3 –6 in NK‐92 cells (2 h, 37 °C). D) Flow cytometry analysis of protein labeling in NK‐92 cells by 3 –5. […] E) Flow cytometry analysis of concentration‐dependent GzmA labeling in NK‐92 cells and S/N of 5 (5 μM, 2 h, 37 °C). […]
Briefly, hGzmA (50 nM) was incubated with either inhibitor 1 or 2 (200 nM), and GzmA fluorogenic substrate […] (100 µM) in 50 mM Tris, 150 mM NaCl, 0.01% Triton X-100 (pH 8) for 15 hr at 37 °C. Recorded fluorescence at Ex/Em: 380/460 nm for residual GzmA […]
Cat. No. CRL-2570) and 4T1 (ATCC Cat. No. CRL-2539) cells were cultured in RPMI supplemented with 10% fetal bovine serum (FBS), 1% penicillin/streptomycin (PS), and 2 mM L-glutamine, while HEK293T and MDA-MB-231 cells (ATCC Cat. No. HTB-26) were cultured in DMEM supplemented likewise as described above. […] The supernatant was collected, and protein concentration was measured using a Pierce BCA protein assay. […]
C. In-gel fluorescence imaging […]

Square brackets hold non-standard residues; d marks the D form. Ends that are not written are not given here. Oic = O=C(O)[C@@H]1C[C@@H]2CCCC[C@@H]2N1; Tic = O=C(O)[C@@H]1Cc2ccccc2CN1

For the substance IGNR [compound 5], the “Labeling of PR3 (cross-reactivity)” value in experiment [1] is “Neither probe 5 nor 6 showed detectable labeling”. For the same substance, in experiment [2], the “Labeling of GzmA in NK-92 lysate” value was “selectively labeled GzmA in a concentration‐dependent manner at low nanomolar levels”.
On the same counts, the results for [Tic]G[Oic]R [compound 6] are “Neither probe 5 nor 6 showed detectable labeling” and “selectively labeled GzmA in a concentration‐dependent manner at low nanomolar levels”.
